Values of other authors as cited in paper PMC6647941 (ACS Omega, 2019).

Settings: dopamine transporter tracer ref 12

CN1[C@H]2CC[C@@H]1[C@@H](CN(CC[S-])CC[N-]CC[S-])[C@@H](c1ccc(Cl)cc1)C2.[O]=[99Tc+4] [^99mTc-TRODAT-1]
brain uptake: 0.40 % ID/g
